Read-outs that look alike come from different tables or passages of the source.
Key:
CYP3A4 = CYP3A4 (Homo sapiens (Human), UniProt P08684)
Procedure: Enzyme reaction was performed by incubating in a potassium phosphate buffer solution (pH 7.4) containing 1 nM to 20 μM test compound, 3.2 mM magnesium chloride, 0.2 pmol human CYP3A4 (BD Biosciences), 0.5 mM reduced nicotinamide adenine dinucleotide phosphate (NADPH) and 3 μM Luciferin-IPA (Promega) at 37° C. for 10 minutes. The volume of the reaction solution was 50 μL/well. The 30-minute pre-incubation group was incubated at 37° C. for 30 minutes before adding the substrate, the Luciferin-IPA solution (12.5 μL/well). At the end of the enzyme reaction, 50 μL/well of a Luciferin detection reagent (Promega) was added to the wells, and the plate was left at room temperature for 20 minutes. Then, the emission intensities were measured with Infinite M1000 (TECAN). The enzyme activities (%) relative to the value of the group to which the test compound was not added were calculated.

human NK1 receptor [1] = target: T1, human NK1 receptor (Homo sapiens (Human), UniProt P25103); assay: Affinity for human NK1 receptor (125I-substance P receptor binding test); conditions: membrane fraction of human NK1 receptor-expressing 293T cells; read-out: IC50 (concentration required for 50% inhibition of 125I-substance P binding)
Procedure: Affinity for Human NK1 Receptor
(3) Measurement of Binding Affinity to Human NK1 Receptor
(3-1) Preparation of Membrane Fraction from Human NK1 Receptor-expressing Cells
Human NK1 receptor-expressing cells were prepared in a 175 cm^2 culture flask (Nippon Becton Dickinson). The formation of a complex of the human NK1 receptor expression plasmid and Lipofectamine 2000 was performed by calculating the culture area ratio and increasing the scale of the method described in the above 2-4 by the ratio. The human NK1 receptor-expressing cells were collected in a buffer solution for the membrane fraction preparation (50 mM Tris (Wako Pure Chemical). 120 mM sodium chloride (Wako Pure Chemical Industries), 5 mM potassium chloride (Wako Pure Chemical Industries), 1 mM ethylenediaminetetraacetic acid (Sigma), 0.002 mg/mL chymostatin (Peptide Institute), 0.04 mg/ bacitracin (Wako Pure Chemical Industries), 0.005 mg/mL phosphoramidon (Peptide Institute) and 0.5 mM phenylmethylsulfonyl fluoride (Wako Pure Chemical Industries), pH7.4) and centrifuged at 1,880 g for 10 minutes, and the cell sediment was suspended in the buffer solution for the membrane fraction preparation. After freezing and thawing the cells once, the cells were homogenized using a Dounce-type homogenizer (cooled on ice, 1000 rpm, 20 times). The homogenized cell suspension was centrifuged at 20,000 rpm for 10 minutes, and the supernatant was removed to obtain cell sediment. The cell sediment was suspended again in the buffer solution for the membrane fraction preparation and homogenized using a Dounce-type homogenizer (cooled on ice, 1000 rpm, 30 times). The cell suspension was centrifuged at 20,000 rpm for 10 minutes, and the supernatant was removed to obtain cell sediment. The same homogenization and centrifugation were repeated again, and final cell sediment was obtained. The final cell sediment was suspended in a buffer solution for the receptor binding test (50 mM Tris (Wako Pure Chemical Industries), 3 mM manganese chloride (Wako Pure Chemical Industries), 0.002 mg/mL chymostatin (Peptide Institute), 0.04 mg/bacitracin (Wako Pure Chemical Industries) and 0.02% bovine serum albumin (Sigma), pH 7.4), and the protein concentration was measured using BCA Protein Assay Kit (Pierce).
(3-2) Receptor Binding Test
The buffer solution for the receptor binding test was dispensed to the wells of a 96-well assay plate (Greiner) at 22.5 μL/well. DMSO solutions of a test compound, which were prepared at an 80-time higher concentration using 100% dimethyl sulfoxide (DMSO), were added to the wells at 2.5 μL/well (final concentrations of 1 nM to 100 nM), and the solutions were mixed. As a radiolabeled ligand, ^125I-substance P (Substance P, [^125I]Tyr^8-, PerkinElmer) was used. ^125I-substance P was diluted with the buffer solution for the receptor binding test to a concentration resulting in […] and added to the 96-well assay plate, and the solutions were mixed. The membrane fraction prepared from the human NK1 receptor-expressing cells was diluted with the buffer solution for the receptor binding test to a concentration resulting in 8 to 10 μg/well, suspended until the suspension became in such a homogenous state that the suspension could flow through as 27G injection needle smoothly and then added to the 96-well assay plate at 150 μL/well. Then, the plate was incubated at room temperature for 60 minutes while shaking the plate. The reaction solutions were suction-filtered. through a multiscreen 96-well filter plate (Millipore) which had been pre-treated with 0.3% polyethyleneimine, and the reaction was terminated by washing with a washing solution (50 mM Tris and 0.02% bovine serum albumin, pH 7.4) four times. The bottom of the microplate was dried at 60° C., and then 100 μL/well of MicroScint 20 (PerkinElmer) was dispensed to the wells. The top of the plate was sealed with TopSeal A (PerkinElmer), and the plate was shaken for 5 to 10 minutes. […]

NK1 receptor = NK1 receptor (Meriones unguiculatus (Mongolian jird) (Gerbillus unguiculatus), UniProt Q5DUB1); assay: Effect on GR73632-induced foot-tapping; type: in vivo; conditions: 0.3 mg/kg from the jugular vein, GR73632 after four hours, male gerbil
Procedure: (1) Effect on Foot-tapping
(§1) A male gerbil (Japan SLC) was anesthetized with isoflurane, and 0.3 mg/kg of a test compound was administered from the jugular vein. After four hours, GR73632 (5 pmol/5 μl), which is an NK1 receptor agonist, was administered into the cerebral ventricle at the part 1 mm lateral to and 4.5 mm below the bregma in the head, under anesthesia with isoflurane. After the administration, the gerbil was moved to an observation cage, and the foot-tapping period during five minutes after the recovery of the righting reflex was measured. The foot-tapping inhibition rate (%) of each test compound was calculated by the following equation. Foot-tapping inhibition rate (%)={1−(Foot-tapping period when test compound was administered)/(Foot-tapping period when solvent was administered)}×100 (2) Measurement of Drug Concentrations
(§2) In the table, Ex. No. means the Example number. Inhibition (%) is the foot-tapping inhibition rate, and Conc. (nM) is the drug concentration in the brain.

[2] = Measurement of drug concentrations in the brain after foot-tapping test; type: in vivo; conditions: male; 0.3 mg/kg iv, after foot-tapping was finished, gerbil brain; read-out: Conc. (drug concentration in the brain)
Procedure: as §1
After foot-tapping was finished, laparotomy was performed immediately under anesthesia with ether, and a blood sample was taken from the abdominal vena cava. At the same time, the brain was extracted. Through a quantitative analysis using liquid chromatography-mass spectrometry (LC/MS), the concentrations of the test compound in the plasma and the brain were measured.
as §2

human NK1 receptor [3] = target: T1, human NK1 receptor; assay: Inhibitory effect on human NK1 receptor (substance P-induced increase in intracellular calcium concentration); type: cell-based; conditions: HEK-293T; substance P 1 μM, compound 0.1 μM; human NK1 receptor-expressing 293T cells; read-out: SPRR (Substance P-Response Remaining)
Procedure: Inhibitory Effect on Human NK1 Receptor
(1) Preparation of Human NK1 Receptor-expressing Cells
Human NK1 receptor-expressing cells were prepared by the same methods as those described in 2-3 and 2-4 of Test Example 1.
(2) Study on Inhibitory Effect on Increase in Intracellular Calcium Concentration
The human NK1 receptor-expressing cells were washed with 300 μL/well of a washing solution (20 mM HEPES/Hank's Balanced Salt Solution (HBSS) […]). A fluorescent calcium indicator (Fluo-4 Direct Calcium Assay Kit, Life Technologies, containing 0.42 mM probenecid and 0.1% bovine serum albumin, prepared according to the protocol of the product) was added to the wells at 150 μL/well, and the plate was incubated at 37° C. for 30 minutes in an incubator. Then, DMSO solutions of a test compound, which were prepared at an 80-time higher concentration using 100% dimethyl sulfoxide (DMSO), were added to the wells at 2.5 μL/well (final concentrations of 0.1, 1 and 10 μM), and the solutions were mixed. Then, the plate was further incubated at 37° C. for 30 minutes in an incubator. After 30 minutes, the intracellular calcium concentrations were measured immediately.
The intracellular calcium concentrations were each measured as a fluorescent signal using FDSS (registered trademark) 7000 (Hamamatsu Photonics). A substance P (Peptide Institute, Inc.) solution which was prepared at 0.4 μM or 4 μM using an assay buffer (20 mM HEPES/Hank's Balanced Salt Solution (HBSS) pH 7.3, containing 0.1% bovine serum albumin) was added automatically to each well at 50 μL/well (final concentration of 0.1 or 1 μM) 10 seconds after starting reading, and the fluorescent signal was measured up to 120 seconds.
The intracellular calcium concentration (%) of the cells to which a test compound was added was calculated by the equation below, where the fluorescent signal of the group to which the vehicle (DMSO) was added was regarded as 100%, and the fluorescent signal before the addition of substance P was regarded as 0%. Intracellular calcium concentration(%)=(Fluorescent signal of test compound addition group)/(Fluorescent signal of vehicle addition group)×100
The intracellular calcium concentration (%) calculated was regarded as the remaining agonist activity of substance P (Substance P-Response Remaining: SPRR). In the table, Ex. No. means the Example number. SPRR (%) is the value obtained when the concentration of substance P was 1 μM and the concentration of the compound was 0.1 μM.

T1 sequence (P25103 whole entry): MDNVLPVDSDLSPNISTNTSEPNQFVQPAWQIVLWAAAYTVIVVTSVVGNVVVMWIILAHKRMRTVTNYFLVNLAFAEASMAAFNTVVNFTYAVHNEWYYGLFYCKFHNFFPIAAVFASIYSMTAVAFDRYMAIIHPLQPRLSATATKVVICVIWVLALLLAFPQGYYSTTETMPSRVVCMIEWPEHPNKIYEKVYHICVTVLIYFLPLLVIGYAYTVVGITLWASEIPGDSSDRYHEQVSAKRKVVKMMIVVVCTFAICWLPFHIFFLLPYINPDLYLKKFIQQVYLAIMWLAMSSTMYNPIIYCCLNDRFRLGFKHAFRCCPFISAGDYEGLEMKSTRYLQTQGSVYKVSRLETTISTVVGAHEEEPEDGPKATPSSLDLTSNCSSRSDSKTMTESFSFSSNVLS
Chain of CYP3A4 (P08684 whole entry): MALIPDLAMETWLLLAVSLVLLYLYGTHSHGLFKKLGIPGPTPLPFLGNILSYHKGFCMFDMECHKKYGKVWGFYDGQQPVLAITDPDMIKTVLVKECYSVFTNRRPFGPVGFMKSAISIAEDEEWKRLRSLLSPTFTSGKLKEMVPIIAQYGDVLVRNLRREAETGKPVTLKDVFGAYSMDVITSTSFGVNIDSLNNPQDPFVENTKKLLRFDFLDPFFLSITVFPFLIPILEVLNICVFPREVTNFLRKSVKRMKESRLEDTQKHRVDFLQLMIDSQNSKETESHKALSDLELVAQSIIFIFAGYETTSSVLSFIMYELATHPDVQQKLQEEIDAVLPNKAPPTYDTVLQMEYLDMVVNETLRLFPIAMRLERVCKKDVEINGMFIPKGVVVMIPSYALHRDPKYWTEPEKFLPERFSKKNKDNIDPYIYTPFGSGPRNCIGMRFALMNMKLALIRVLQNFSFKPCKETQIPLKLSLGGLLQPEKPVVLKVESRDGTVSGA
Chain of NK1 receptor (Q5DUB1 whole entry): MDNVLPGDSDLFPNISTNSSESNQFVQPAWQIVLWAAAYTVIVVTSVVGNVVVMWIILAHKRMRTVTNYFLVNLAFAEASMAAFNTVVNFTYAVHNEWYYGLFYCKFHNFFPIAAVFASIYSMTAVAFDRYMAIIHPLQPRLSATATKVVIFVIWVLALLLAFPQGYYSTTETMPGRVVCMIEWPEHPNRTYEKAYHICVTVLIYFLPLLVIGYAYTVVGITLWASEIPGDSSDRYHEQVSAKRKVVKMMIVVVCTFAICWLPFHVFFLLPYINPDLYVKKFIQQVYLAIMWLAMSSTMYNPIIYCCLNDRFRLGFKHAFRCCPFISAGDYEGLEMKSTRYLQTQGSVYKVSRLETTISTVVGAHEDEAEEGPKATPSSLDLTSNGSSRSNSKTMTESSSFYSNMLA

Row | Structure (SMILES) | IC50 (CYP3A4) [nM] | IC50 (human NK1 receptor [1]) [nM] | IC50 (CYP3A4; human, 10 min, pH 7.4) [nM] | Inhibition (foot-tapping inhibition rate) (NK1 receptor) [%] | concentration at 4 h [2] [nM] | remaining activity at 0.1 µM (human NK1 receptor [3]) [%]
1 | Cc1cc(F)ccc1-c1cc(N2CCC([C@@H](C)C(=O)O)CC2)ncc1N(C)C(=O)C(C)(C)c1cc(C(F)(F)F)cc(C(F)(F)F)c1 [Example 12, (R)-2-[5′-{[2-(3,5-Bistrifluoromethylphenyl)-2-methylpropionyl]methylaminol}-4′-(4-fluoro-2-methylphenyl)-3,4,5,6-tetrahydro-2H-[1,2]bipyridinyl-4-yl]propionic acid] | 4600 | 7.44 |  |  |  | 
2 | Cc1cc(F)ccc1-c1cc(N2CCC(C(C)C(=O)O)CC2)nc(C#N)c1N(C)C(=O)C(C)(C)c1cc(C(F)(F)F)cc(C(F)(F)F)c1 (stereo not shown) [Example 8] |  | 2.25 | 1400 | 100 | 213 | 69

Reference: patent US10100030B2 (Kissei Pharmaceutical Co., Ltd., priority 2013, dated 2018)
